Test results as given in patent publication US20070128217A1 (priority 2003, published 2007).

What was measured:
[1] = system: antibodies in sera from SARS patients (sera 1a, 1b, 2, 6, 37, 62, London, SARS-yellow, SARS-green); format: binding, human; parameters: Binding of serum 6 to linear peptides of protein X1 of SARS-CoV Urbani / Binding of serum 37 to linear peptides of protein X1 of SARS-CoV Urbani / Binding of serum 6 to looped/cyclic peptide (PEPSCAN-ELISA) / Binding of serum 37 to looped/cyclic peptide (PEPSCAN-ELISA) / Binding of serum 37 to looped/cyclic peptides of protein X1 of SARS-CoV Urbani / Binding of serum 6 to linear peptides of protein X2 / Binding of serum 37 to linear peptides of protein X2 / Binding of serum 37 to looped/cyclic peptides of protein X2 of SARS-CoV Urbani / Binding of serum 6 to linear peptides of protein M of SARS-CoV Urbani / Binding of serum 37 to linear peptides of protein M of SARS-CoV Urbani / Binding of serum 6 to looped/cyclic peptides of protein M of SARS-CoV Urbani / Binding of serum 37 to looped/cyclic peptides of protein M of SARS-CoV Urbani / Binding of serum 6 to linear peptides of protein X3 of SARS-CoV Urbani / Binding of serum 37 to linear peptides of protein X3 of SARS-CoV Urbani / Binding of serum 37 to looped/cyclic peptides of protein X3 of SARS-CoV Urbani / Binding of serum 6 to linear peptides of protein X4 of SARS-CoV Urbani / Binding of serum 37 to linear peptides of protein X4 of SARS-CoV Urbani / Binding of serum 37 to looped/cyclic peptides of protein X4 of SARS-CoV Urbani / Binding of serum 6 to linear peptides of protein X5 of SARS-CoV Urbani / Binding of serum 37 to linear peptides of protein X5 of SARS-CoV Urbani / Binding of serum 37 to looped/cyclic peptides of protein X5 of SARS-CoV Urbani / Binding of serum 6 to linear peptides of protein N of SARS-CoV Urbani / Binding of serum 37 to linear peptides of protein N of SARS-CoV Urbani / Binding of serum 6 to linear peptide (PEPSCAN-ELISA) / Binding of serum 1a to looped/cyclic peptides of protein N of SARS-CoV Urbani / Binding of serum 1b to looped/cyclic peptides of protein N of SARS-CoV Urbani / Binding of serum 2 to looped/cyclic peptides of protein N of SARS-CoV Urbani / Binding of serum 6 to looped/cyclic peptides of protein N of SARS-CoV Urbani / Binding of serum 37 to looped/cyclic peptides of protein N of SARS-CoV Urbani / Binding of serum 62 to looped/cyclic peptides of protein N of SARS-CoV Urbani / Binding of serum London to looped/cyclic peptides of protein N of SARS-CoV Urbani / Binding of serum SARS-green to looped/cyclic peptides of protein N of SARS-CoV Urbani: unit not given here
[2] = system: control sera (pooled serum of ten healthy LUMC hospital workers; commercial negative donor pooled serum from the Dutch bloodbank); format: binding, human; parameters: Binding of Control serum LUMC to linear peptides / Binding of Control serum Blood-bank to linear peptides / Binding of Control serum LUMC to looped peptides / Binding of Control Serum Blood-Bank to Looped peptides / Binding of Control serum LUMC to linear peptides of the protein M of SARS-CoV Urbani / Binding of Control serum Blood-bank to linear peptides of the protein M of SARS-CoV Urbani / Binding of Control serum LUMC to looped peptides of the protein M of SARS-CoV Urbani / Binding of Control Serum Blood-Bank to Looped peptides of the protein M of SARS-CoV Urbani: unit not given here
[3] = system: rabbit serum obtained by immunizing a rabbit with the SARS-CoV strain Frankfurt 1; format: binding; parameters: Binding of a rabbit serum to linear peptides / Binding of a rabbit serum to looped peptides / Rabbit serum linear peptides / Rabbit serum looped peptides / Binding of a rabbit serum to linear peptides of protein N of SARS-CoV Urbani (Rabbit serum linear peptides) / Binding of a rabbit serum to looped/cyclic peptides of protein N of SARS-CoV Urbani (Rabbit serum looped peptides): unit not given here
[4] = system: recombinant human anti-SARS-CoV antibody 03-018; format: binding; parameters: Binding of antibody 03-018 to linear peptides of the N protein of SARS-CoV Urbani / Binding of antibody 03-018 to looped/cyclic peptides of the N protein of SARS-CoV Urbani: unit not given here

| Sequence | Binding of serum 1a to linear peptides of protein N of SARS-CoV Urbani [1] | Binding of serum 1a to looped/cyclic peptides of protein N of SARS-CoV Urbani [1] | Binding of serum 1b to linear peptides of protein N of SARS-CoV Urbani [1] | Binding of serum 1b to looped/cyclic peptides of protein N of SARS-CoV Urbani [1] | Binding of serum 2 to linear peptides of protein N of SARS-CoV Urbani [1] | Binding of serum 2 to looped/cyclic peptides of protein N of SARS-CoV Urbani [1] | Binding of serum 6 to linear peptides of protein N of SARS-CoV Urbani [1] | Binding of serum 6 to looped/cyclic peptides of protein N of SARS-CoV Urbani [1] | Binding of serum 37 to linear peptides of protein N of SARS-CoV Urbani [1] | Binding of serum 37 to looped/cyclic peptides of protein N of SARS-CoV Urbani [1] | Binding of serum 62 to linear peptides of protein N of SARS-CoV Urbani [1] | Binding of serum 62 to looped/cyclic peptides of protein N of SARS-CoV Urbani [1] | Binding of serum London to linear peptides of protein N of SARS-CoV Urbani [1] | Binding of serum London to looped/cyclic peptides of protein N of SARS-CoV Urbani [1] | Binding of serum SARS-green to linear peptides of protein N of SARS-CoV Urbani [1] | Binding of serum SARS-green to looped/cyclic peptides of protein N of SARS-CoV Urbani [1] | Binding of serum SARS-yellow to linear peptides of protein N of SARS-CoV Urbani [1] | Binding of serum SARS-yellow to looped/cyclic peptides of protein N of SARS-CoV Urbani [1] | Binding of antibody 03-018 to linear peptides of the N protein of SARS-CoV Urbani [4] | Binding of antibody 03-018 to looped/cyclic peptides of the N protein of SARS-CoV Urbani [4] | further results |
| --- | --- | --- | --- | --- | --- | --- | --- | --- | --- | --- | --- | --- | --- | --- | --- | --- | --- | --- | --- | --- | --- |
| AYKTFPPTEPKKDKK | 0.2 | 0.1 | 0.1 | 0.1 | 0.3 | 0.2 | 0.2 | 0.0 | 0.7 | 0.2 | 0.8 | 0.1 | 0.6 | 0.1 | 0.3 | 0.0 | 0.7 | 0.0 | 0.1 | 0.1 | Control Serum Blood-Bank Looped peptides [2]: 0.3; Control serum Blood-bank linear peptides [2]: 0.7; Control serum LUMC linear peptides [2]: 0.6; Control serum LUMC looped peptides [2]: 0.1; Binding of a rabbit serum to linear peptides of protein N of SARS-CoV Urbani (Rabbit serum linear peptides) [3]: 0.2; Binding of a rabbit serum to looped/cyclic peptides of protein N of SARS-CoV Urbani (Rabbit serum looped peptides) [3]: 0.0 |
| DAYKTFPPTEPKKDK | 0.3 | 0.2 | 0.2 | 0.1 | 0.3 | 0.2 | 0.3 | 0.1 | 0.8 | 0.3 | 1.1 | 0.2 | 0.6 | 0.2 | 0.4 | 0.0 | 0.7 | 0.1 | 0.1 | 0.2 | Control Serum Blood-Bank Looped peptides [2]: 0.2; Control serum Blood-bank linear peptides [2]: 0.8; Control serum LUMC linear peptides [2]: 0.6; Control serum LUMC looped peptides [2]: 0.2; Binding of a rabbit serum to linear peptides of protein N of SARS-CoV Urbani (Rabbit serum linear peptides) [3]: 0.1; Binding of a rabbit serum to looped/cyclic peptides of protein N of SARS-CoV Urbani (Rabbit serum looped peptides) [3]: 0.1 |
| DDQIGYYRRATRRVR | 0.3 | 0.4 | 0.1 | 0.2 | 0.3 | 0.5 | 0.3 | 0.4 | 0.7 | 0.9 | 0.9 | 0.7 | 0.7 | 0.5 | 0.6 | 0.4 | 0.6 | 0.5 | 0.1 | 0.3 | Binding of Control Serum Blood-Bank to Looped peptides [2]: 0.8; Binding of Control serum Blood-bank to linear peptides [2]: 1.0; Binding of Control serum LUMC to linear peptides [2]: 1.0; Binding of Control serum LUMC to looped peptides [2]: 0.8; Recognition of the peptide by the rabbit serum [3]: recognized |
| DFSRQLQNSMSGASA | 0.2 | 0.3 | 0.1 | 0.1 | 0.2 | 0.4 | 0.2 | 0.2 | 0.7 | 0.4 | 0.6 | 0.2 | 0.5 | 0.3 | 0.3 | 0.4 | 0.5 | 0.2 | 0.1 | 0.2 | Control Serum Blood-Bank Looped peptides [2]: 0.5; Control serum Blood-bank linear peptides [2]: 0.6; Control serum LUMC linear peptides [2]: 0.6; Control serum LUMC looped peptides [2]: 0.4; Binding of a rabbit serum to linear peptides of protein N of SARS-CoV Urbani (Rabbit serum linear peptides) [3]: 0.5; Binding of a rabbit serum to looped/cyclic peptides of protein N of SARS-CoV Urbani (Rabbit serum looped peptides) [3]: 0.6 |
